Source: publication PMC10980656 (CNS Drugs, 2024)
Counter-ions that a name gives are not always drawn. Like-named read-outs stand apart in the source and are kept apart here.

Key:
[1] = cited from earlier work
clinical = conditions: both, human, in vivo; for AUC(0-t): AUC0–tz (geoMean); for Cmax: Cmax (geoMean), healthy subjects
[2] = repeated freeze/thaw cycles, short- (24 h) and long-term (30 day) storage; cited from earlier work
healthy women and men = conditions: mild
[3] = iv, 30 mg, plasma, single IV 30 mg fasudil over 30 min

SMILES	AUC0–tz LS mean ratio (oral/IV treatment) point estimate (90% CI) (both, human, in vivo)	AUC0–∞ LS mean ratio (oral/IV treatment) point estimate (90% CI) (both, human, in vivo)	hydroxyfasudil concentration after oral treatment compared with IV treatment (linear mixed-effect model of the full analysis set) [%]	Cmax LS mean ratio (oral/IV treatment) point estimate (90% CI) (linear mixed-effects model)	serum half-life ([1]; after IV administration of fasudil) [min]	exposure (AUC) ([1]; after IV applications (30 mg fasudil over 30 min)) [ng·h/mL]	exposure (AUC) ([1]; investigational oral solution, 40 mg fasudil hydrochloride) [ng·h/mL]	half-life (clinical; iv) [min]	Tmax (clinical; iv, 30 mg) [min]	AUC(0-t) (clinical; [3]) [ng·h/mL]	AUC(0-inf) (clinical; iv, 30 mg, AUC0–∞ (geoMean), plasma, single IV 30 mg fasudil over 30 min) [ng·h/mL]	Cmax (clinical; [3]) [ng/mL]	Tmax (clinical; po, 30 mg) [min]	half-life (clinical; po, 30 mg) [min]	sample stability (human plasma) [2] [%]	subjects with TEAE assessed as related to the IMP ("headache") (healthy women and men; IV treatment, one subject, recovered/resolved) [%]	treatment emergent adverse events (TEAEs), oral treatment (healthy women and men; oral fasudil, "fatigue", not related to the IMP)
O=S(=O)(c1cccc2c(O)nccc12)N1CCCNCC1 [hydroxyfasudil]	64.52 (60.32–69.01) %	64.76 (60.11–69.78) %	65	102.97 (89.53–118.43) %	100 to 200	400 to 555	300	342	45	439	460	108	30	332	> 94	–	–
O=S(=O)(c1cccc2cnccc12)N1CCCNCC1 [fasudil, fasudil hydrochloride, reference compound]	–	–	–	–	–	–	–	–	22.5	55.6	–	101	15	–	–	7.1	One TEAE
